Reference: US20080131366A1, “Folate Receptor Gene Modulation For Cancer Diagnosis And Therapy” (priority 2003, published 2008)

Key:
Assay type in all cases: cell-based
FR-α = experiment: Induction of endogenous FR-α in ER+/FRα-negative cells; conditions: ER+/FRα-negative cells including BG-1; results not shown
Text: It appears that ER will only modulate the endogenous FR-α gene in cells in which the gene is transcriptionally active.

FR-α promoter [1] = experiment: FR-α promoter-luciferase reporter in BG-1 cells (endogenous ER); conditions: BG-1, endogenous ER
Procedure: (§1) (FIG. 1A) HeLa and IGROV-1 cells (10^6) were co-transfected with the FR-α promoter-luciferase construct (400 ng) and either an ER expression plasmid (25 ng) or with the plasmid vector alone (25 ng) in the presence of 1 nM E2. Antiestrogens were introduced at the time of transfection. […] (FIG. 1B) The FR-α promoter-luciferase construct (400 ng) was transfected into BG-1 cells (10^6) in the absence or in the presence of E2 (1 nM) and antiestrogens were introduced at the time of transfection. (FIG. 1C) HeLa cells (10^6) were transfected with the thymidine kinase (TK)-promoter-luciferase (200 ng) or Rous Sarcoma Virus (RSV)-promoter-luciferase (200 ng) constructs and were co-transfected with either ER plasmid (25 ng) or with the plasmid vector (25 ng). Antiestrogens were introduced at the time of transfection.
(§2) Cell Culture and Transfection: HeLa I-1 cells were kindly provided by Dr. S. T. Rosen. BG-1 cells were provided by Dr. Randolf Ruch. […] Uniformity of transfection was routinely monitored through cotransfections with the β-galactosidase expression plasmid, pSV-β-gal (Promega). β-galactosidase activity was measured colorimetrically using the assay system available from Promega. […]

FR-α promoter [2] = experiment: FR-α promoter-luciferase in HeLa cells transfected with ERβ
Procedure: FIG. 8 is graph showing an effect of ERα vs. […] on FR-α promoter activity. HeLa cells (10^6) were transfected with the FR-α promoter-luciferase construct (200 ng) and co-transfected individually or in combination with expression plasmids (25 ng) for ERα, […] or with the plasmid vector. The cells were treated from the time of transfection with E2 (1 nm) and either without or with ICI 182, 780.
Effect of ERβ on FR-α Promoter activity: Since ER+ gynecological tumors are known to frequently co-express ERα and ERβ, the inventor herein tested whether ERβ may modulate FR-α similar to ERα or may otherwise counteract the effect of ERα.

FR-α/SV40 (GC)6 promoter = experiment: FR-α/SV40 (GC)6 chimeric promoter-luciferase in HeLa cells with ER; conditions: in the presence of ER
Procedure: FIG. 6C is a graph showing HeLa cells (10^6) which were transfected with FR-α promoter-luciferase (FR-α-Luc) (400 ng) [Seq. ID No. 6], FR-1-Luc in which the G/C-rich region (−47 nt to −18 nt) [Seq. ID No. 7] of the P4 promoter was replaced by the G/C-rich region in the SV40 early promoter (FR-α/SV40 (GC)6) (400 ng), or with FR-α-Luc[Seq. ID No. 6] in which the initiator region (−28 nt to +33 nt) [Seq. ID No. 8] was replaced by the TATA box-containing initiator region of the SV40 early promoter (FR-α/SV40-lnr) (400 ng). ER expression plasmid (25 ng) or the plasmid vector (25 ng) was co-transfected as indicated. The transfected cells were grown in the presence of E2 (1 nM) and either in the absence or in the presence of ICI 182, 780 for 48 h before harvesting them for luciferase assays.
DNA Constructs: Construct design used either natural restriction sites or restriction sites created by the polymerase chain reaction (PCR) using Vent DNA polymerase (New England Biolabs) and custom oligonucleotides from Gibco BRL. In cases where a natural restriction site could not be found for use, complementary primers containing an appropriate restriction site or point mutation were used in conjunction with upstream and downstream primers containing restriction sites. Alternatively, mutagenic oligonucleotides were used as end primers to amplify the desired fragment. […]

FR-α promoter [3] = experiment: FR-α promoter-luciferase reporter in HeLa cells co-transfected with ER
Procedure: as §1
FIGS. 2A and 2B are graphs showing an estrogen and antiestrogen dose response of a control ERE-driven promoter and the FR-α promoter in HeLa cells. The Y-axis in FIG. 2A indicates promoter activation, whereas the Y-axis in FIG. 2B indicates promoter repression. The cells (10^6) were transfected with either ERE2E1b-luciferase (100 ng) (FIG. 2A) or FR-α promoter-luciferase (100 ng) (FIG. 2B) and co-transfected with the ER expression plasmid (50 ng) where indicated. Cells that were not co-transfected with the ER-plasmid were co-transfected instead with the plasmid vector alone (50 ng).
FIGS. 3A and 3B are graphs showing a time course of response of the control ERE2E1b-luciferase (FIG. 3A) and FR-α promoter luciferase (FIG. 3B) to antiestrogens in HeLa cells. The cells (10^6) were transfected with the indicated promoter-luciferase construct (100 ng) and co-transfected with ER expression plasmid (50 ng) in the presence of E2 (1 nM).
In one set of experiments, the antiestrogens were removed after a 6 h treatment.
Cell Culture and Transfection: HeLa I-1 cells were kindly provided by Dr. S. T. Rosen. BG-1 cells were provided by Dr. Randolf Ruch. HeLa (American Type Tissue Collection) and HeLa I-1 cells were routinely cultured in phenol red-free MEM supplemented with fetal bovine serum (FBS) (10%), penicillin (100 units/mL), streptomycin ([…]), and L-glutamine (2 mM). BG-1 and IGROV1 (American Type Tissue Collection) cells were routinely cultured in DMEM and supplemented as above. Treated or transfected cells were grown in phenol-red free media supplemented with charcoal-stripped FBS (5% v/v), penicillin (100 units/mL), streptomycin ([…]), L-glutamine (2 mM), insulin (2 μg/mL), and transferrin (40 μg/mL) unless otherwise noted. In addition, treated HeLa I-1 cells were grown in culture with 50 μg/mL G418. […] Uniformity of transfection was routinely monitored through cotransfections with the β-galactosidase expression plasmid, pSV-β-gal (Promega). β-galactosidase activity was measured colorimetrically using the assay system available from Promega.
Luciferase Assay: Forty-eight hours after transfection, the cells were washed once with PBS (10 mM sodium phosphate, pH 7.5, 150 mM NaCl) and harvested in 400 μL of reporter lysis buffer provided with the luciferase assay system (Promega). The samples were centrifuged at 12,000 g for 2 min at room temperature. The supernatant was assayed for luciferase activity in a luminometer (Lumat LB9501, Berthold) using the luciferase substrate from Promega.

FR-α promoter [4] = experiment: FR-α promoter-luciferase reporter in IGROV-1 cells co-transfected with ER; conditions: IGROV-1, ER co-transfected, 1 nM E2, pharmacologic concentrations of antiestrogen
Procedure: as §1, §2

In the case of `C[C@]12CC[C@@H]3c4ccc(O)cc4C[C@@H](CCCCCCCCC[S+]([O-])CCCC(F)(F)C(F)(F)F)[C@H]3[C@@H]1CC[C@@H]2O` (stereo partly drawn) [ICI 182,780], the “induction of endogenous FR-α expression” value (FR-α) is reported as “In no case did the inventor observe induction”, the FR-α promoter activity (FR-α promoter [1]) is reported as “increased the promoter activity” and the “repression of the FR-α promoter by ERβ” value (FR-α promoter [2]) is reported as “reversed”. For the same compound, the chimeric promoter activity (FR-α/SV40 (GC)6 promoter) was “this activation was counteracted”, the “duration of derepression after withdrawing the compound” value (FR-α promoter [3]; 6 h treatment) was “at least 18 h” and the “derepression of FR-α promoter after 6 h treatment and withdrawal” value (FR-α promoter [3]; 6 h treatment, then compound withdrawn) was “full derepression”. The “effect on FR-α promoter (ligand dose response)” value (FR-α promoter [3]; HeLa, ER co-transfected) was “the repression was counteracted”, the “FR-α promoter activity after repression by ER” value (FR-α promoter [3]; HeLa, ER co-transfected, 1 nM E2, pharmacologic concentrations of antiestrogen) was “either partially or completely restored to the uninhibited values” and the “reporter activity at the end of 48 h post-transfection” value (FR-α promoter [3]; antiestrogen introduced 24 h after co-transfection) was “a doubling of the reporter activity”. The “onset of activation of FR-α promoter” value (FR-α promoter [3]; antiestrogen introduced 24 h after transfection) was “began within hours and progressively increased”, the “FR-α promoter activity in the absence of ER” value (FR-α promoter [3]; no ER co-transfected, HeLa and IGROV-1, results not shown) was “did not alter FR-α promoter activity” and the “FR-α promoter activity after repression by ER” value (FR-α promoter [4]) was “either partially or completely restored to the uninhibited values”.
